Values joined by “and” are separate entries in the source; they are usually repeats but may differ in a detail not shown here. Equal entries are not always repeated.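 96-well plates; 48 h exposure; 5 concentrations. Endpoints by linear interpolation between flanking doses. Not reached: highest tested concentration assigned. GI50 is the concentration that inhibits growth by half.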 Active and inactive are the calls of the source. Cut-off read from the data, not from the text of the source: active = GI50 up to about 1.1 µM and inactive = higher.
What was measured:
Experiment in all cases: growth of human tumour cells (NCI), 48 h
[1] = system: 786-0
[2] = system: A549
[3] = system: HOP-92
[4] = system: HT-29
[5] = system: IGROV-1
[6] = system: K562
[7] = system: NCI-H460
[8] = system: OVCAR-3
[9] = system: OVCAR-4
[10] = system: OVCAR-5
[11] = system: OVCAR-8
[12] = system: RPMI-8226
[13] = system: SF-268
[14] = system: SN12C
[15] = system: UACC-257
[16] = system: UACC-62
[17] = system: SF-539

Measured: GI50

O=C1C=CC2(O)OCC3C=C4O[C@@H]5OC6(CCCCC6)O[C@@H]5C4[C@@H]2[C@@H]13 (some centres undefined)
inactive: [1] 20.4 µM | [2] > 100 µM | [3] 13.2 µM | [4] 22.3 µM | [5] 56.4 µM | [6] 14.5 µM | [7] > 100 µM | [8] 24.2 µM | [9] 22.6 µM | [10] 31.8 µM | [11] 24.9 µM | [12] 16.2 µM | [13] 33.2 µM | [14] 48 µM | [15] 17.8 µM | [16] 32.7 µM

COC1/C(=C\C(=O)OC(C)(C)C)c2ccccc2N1C(C)=O (centres undefined)
inactive: [1] > 100 µM | [2] > 100 µM | [4] > 100 µM | [5] > 100 µM | [6] > 100 µM | [7] > 100 µM | [8] > 100 µM | [9] > 100 µM | [11] > 100 µM | [12] 34.8 µM | [17] > 100 µM | [14] > 100 µM | [15] > 100 µM | [16] > 100 µM

Nc1ncnc2c1ncn2C1CC(OCc2ccccc2[N+](=O)[O-])C(CO)O1 (centres undefined)
inactive: [1] 43.4 µM | [2] 21.7 µM | [3] 21.4 µM | [4] 17.5 µM | [5] 28.9 µM | [6] 16.1 µM | [7] 20.1 µM | [8] 30.1 µM | [9] 17.4 µM | [10] > 50 µM | [11] 23.8 µM | [12] 14.9 µM | [13] 28.2 µM | [17] 44.5 µM | [14] 24.3 µM | [15] 18.5 µM

O=C(O)Cn1c(=O)[nH]c(=O)c2c1ncn2Cc1ccccc1
inactive: [1] > 100 µM | [2] > 100 µM | [3] > 100 µM | [4] > 100 µM | [6] > 100 µM | [7] > 100 µM | [8] > 100 µM | [10] > 100 µM | [11] > 100 µM | [12] > 100 µM | [13] > 100 µM | [17] > 100 µM | [14] > 100 µM | [16] > 100 µM

CSc1nnc2n1-c1ccccc1SCC2
inactive: [1] > 100 µM | [2] > 100 µM | [3] > 100 µM | [4] > 100 µM | [5] > 100 µM | [6] > 100 µM | [7] > 100 µM | [8] > 100 µM | [9] > 100 µM | [11] > 100 µM | [12] > 100 µM | [13] > 100 µM | [17] > 100 µM | [14] > 100 µM | [15] > 100 µM | [16] > 100 µM

CCCCCC(=O)Cc1cc(OC)cc2c1C(=O)Oc1cc(O)c(C(=O)O)c(CC(=O)CCCCC)c1O2
inactive: [1] 18.9 µM | [2] 43.2 µM | [4] 41.2 µM | [5] 39.4 µM | [6] 30.6 µM | [7] 52.5 µM | [8] 24 µM | [10] > 100 µM | [11] 47.1 µM | [12] 42 µM | [13] 35.2 µM | [17] > 10 µM | [14] > 10 µM | [15] 71.4 µM | [16] 20.6 µM

CCCCOC1CC2(c3ccc(OC)cc3)C(=O)c3ccccc3N2O1 (centres undefined)
inactive: [1] 88.1 µM | [2] 43.8 µM | [5] > 10 µM | [6] 26.5 µM | [7] > 10 µM | [8] 56.1 µM | [10] > 10 µM | [11] 82.2 µM | [12] 18 µM | [13] 50.5 µM | [17] 90.6 µM | [14] > 10 µM | [15] 16 µM | [16] > 10 µM

COc1ccc(/C=c2/sc3n(c2=O)NC(c2ccc(Cl)cc2)NN=3)cc1 (centres undefined)
inactive: [1] > 100 µM | [2] > 100 µM | [3] 46.2 µM | [4] > 100 µM | [5] > 100 µM | [6] > 100 µM | [7] > 100 µM | [8] > 100 µM | [9] > 100 µM | [10] > 100 µM | [11] > 100 µM | [13] > 100 µM | [17] > 100 µM | [14] > 100 µM | [16] > 100 µM

Cc1nc(-c2nc(C)c(C(=O)NNC(=O)C[n+]3ccccc3)s2)sc1C(=O)NNC(=O)C[n+]1ccccc1
inactive: [1] 35.9 µM | [2] > 100 µM | [3] 27.5 µM | [4] > 100 µM | [5] 70.6 µM | [6] 78.2 µM | [7] > 100 µM | [8] 90.2 µM | [10] > 100 µM | [11] > 100 µM | [12] 64.6 µM | [13] 39.7 µM | [17] 37.8 µM | [14] 67.5 µM | [15] 94.2 µM | [16] > 100 µM

Cc1cc(N(CCC#N)CCC#N)ccc1/C=C1\N=C(c2cc([N+](=O)[O-])ccc2Cl)N(c2cccc(Cl)c2)C1=O
inactive: [1] > 100 µM | [2] > 100 µM | [3] > 100 µM | [4] 45.2 µM | [5] > 100 µM | [6] 96.6 µM | [7] > 100 µM | [8] > 100 µM | [9] > 100 µM | [10] > 100 µM | [11] > 100 µM | [12] > 100 µM | [13] > 100 µM | [17] > 100 µM | [14] > 100 µM | [15] > 100 µM | [16] > 100 µM

COC(=O)CSc1ccccc1
inactive: [1] 11.6 µM | [2] > 100 µM | [3] 50.9 µM | [4] > 100 µM | [5] > 100 µM | [6] > 100 µM | [7] > 100 µM | [8] > 100 µM | [9] > 100 µM | [10] > 100 µM | [11] > 100 µM | [12] > 100 µM | [13] > 100 µM | [17] > 100 µM | [14] > 100 µM | [15] > 100 µM | [16] > 100 µM

COc1cc2cc[n+]3c4cc(OC)c(OC)cc4c(C)cc3c2cc1OC
inactive: [1] > 100 µM | [2] > 100 µM | [3] > 100 µM | [4] > 100 µM | [5] > 100 µM | [6] > 100 µM | [7] > 100 µM | [8] > 100 µM | [9] > 100 µM | [10] > 100 µM | [11] > 100 µM | [12] > 100 µM | [17] > 100 µM | [14] > 100 µM | [15] 88.7 µM | [16] > 100 µM

Nc1nnc2c(-c3ccccc3)n[nH]c2n1
inactive: [1] 62.4 µM | [2] 23.5 µM | [3] 12.6 µM | [4] 24.4 µM | [6] 39.9 µM | [7] 26.3 µM | [8] > 100 µM | [9] > 100 µM | [10] > 100 µM | [11] 49.7 µM | [12] 55.3 µM | [13] 17.1 µM | [17] 24.8 µM | [14] 63 µM | [15] 50.7 µM

CCCCCCCCCCCCCP(=O)(O)OCC
inactive: [1] > 100 µM | [2] > 100 µM | [3] > 100 µM | [4] > 100 µM | [5] > 100 µM | [7] > 100 µM | [8] > 100 µM | [9] > 100 µM | [10] > 100 µM | [11] > 100 µM | [13] > 100 µM | [17] > 100 µM | [14] > 100 µM | [15] > 100 µM | [16] > 100 µM

O=[N+]([O-])c1ccc(Cl)cc1C1SCc2nc3ccccc3n21 (centres undefined)
inactive: [1] 53 µM | [2] 41.7 µM | [4] > 100 µM | [5] 80.5 µM | [6] 33.1 µM | [7] 5.3 µM | [8] 54.1 µM | [9] 44.4 µM | [11] 60.8 µM | [12] 31.2 µM | [13] 42.1 µM | [17] > 100 µM | [14] 54.1 µM | [15] 45.2 µM | [16] 61.8 µM

COC(=O)/C(=C/c1ccc(OC)cc1)NC(=O)c1ccccc1
inactive: [1] > 100 µM | [2] > 100 µM | [3] > 100 µM | [4] > 100 µM | [5] > 100 µM | [6] > 100 µM | [7] > 100 µM | [9] > 100 µM | [10] > 100 µM | [11] > 100 µM | [12] > 100 µM | [13] > 100 µM | [17] > 100 µM | [14] > 100 µM | [15] > 100 µM | [16] > 100 µM

COC(=O)CC(C(C(C)=O)C(=O)OCc1ccccc1)N1C(=O)OC(c2ccccc2)C1c1ccccc1 (centres undefined)
inactive: [1] > 100 µM | [2] 68.5 µM and 76.2 µM | [4] > 100 µM | [5] > 100 µM | [6] 68.5 µM and 71.3 µM | [7] > 100 µM | [8] 29.6 µM and 17.4 µM | [11] 70.3 µM and 71.1 µM | [12] 28.8 µM and 33.5 µM | [13] 40.7 µM and 54.5 µM | [14] > 100 µM | [16] 41.1 µM and 45.4 µM

Source: ChEMBL document CHEMBL1201862, “PubChem BioAssay data set” (2004)
